According to a melting point compilation (Tetko et al.; mined from patent text by program, amines drawn as free bases though some values may be those of a salt):

| Structure (SMILES) | melting point [°C] |
| --- | --- |
| Oc1ccc(Sc2ccc(-c3ccc(Sc4ccc(O)cc4)cc3)cc2)cc1 | 214 to 217 |
| Cn1nnnc1CC(c1ccccc1)c1ccccc1 | 147 to 148 |
| CC(=O)Oc1ccc2c3c1OC1C(OS(=O)(=O)C(F)(F)F)CCC4(O)C(C2)N(C)CCC314 (stereo unspecified) | 125 to 126 |
| O=C(C/C=C/c1ccccc1)Nc1cccc(-n2ccnc2)c1 | 130 to 133 |
| CCCc1c(C(C)C)nc(C(C)C)c(C(C)O)c1-c1ccc(F)cc1 (stereo unspecified) | 103 to 104 |
| COC1(c2ccc(Sc3ccc4ccccc4c3)s2)CCOCC1 | 70 |
| COC(=O)C1Oc2ccc(Oc3ccc(Cl)cc3)cc2C(C)(c2ccccc2)O1 (stereo unspecified) | 100 |
| CCCN1C(=O)CN(c2ccccc2)C1=O | 97 |
| CC(C)(C)OC(=O)N1CCC2(CC1)CC(=O)N(OCCO)C2=O | 97 to 98 |
| CNC(=S)NC1CCCc2cc(C)cnc21 (stereo unspecified) | 113 |
| O=C(Cl)N1CC(Oc2ccc(Br)cc2)C1 | 77 to 78 |
| CC(C)(C)OC(=O)C=C(O)c1cccnc1Oc1ccc(F)cc1 | 87 to 89 |
| CCOC(=O)C=C(C)C=CC=C(C)C=Cc1c(C)c(C)c(OC)c(C)c1Cl | 90 |
| COC(=O)NNC(=O)c1cc(OC)c(OC)c(OC)c1 | 145 |
| CCOC(=O)CNC(=O)CCC(=O)OC | 61 to 62 |
| Cc1ncc(-c2ccc([C@H](C)N3CC[C@](CC(C)(C)O)(c4ccccc4)OC3=O)cc2)cn1 | 112 to 115 |
| CN(C)c1ccc(C(=O)c2ccc(N)cc2)cc1 | 150 |
| COCc1c(C(O)c2ccccc2)ncc2[nH]c3ccc(OCc4ccccc4)cc3c12 (stereo unspecified) | 190 to 191 |
| CCn1ncc2c1ncc1c(=O)[nH]c3ncnn3c12 | 175 to 177 |
| CCOC(=O)C=Cc1ccc(OCCN(C)c2ccccn2)cc1 | 80 to 81 |
| CCCCCCCCCCCCCCCCNc1ccc(C(=O)OCC(C)O)cc1 (stereo unspecified) | 91 to 93 |

| Structure (SMILES) | melting point [°C] |
| --- | --- |
| COc1ccc(C=C[N+](=O)[O-])cc1OC1CCCC1 | 133 to 134 |
| CCCCN1C(=O)c2cncnc2Nc2ccccc21 | 145 to 147 |
| COc1ccc2c(c1)[C@@H]1c3ccccc3N[C@@H]1C2 (relative stereo) | 129 to 130 |
| NC1c2ccccc2CC12C(=O)Nc1ccccc12 (stereo unspecified) | 195 to 197 |
| O=C(NCCCCC1CCSS1)N1CCSCC1 (stereo unspecified) | 80 to 81 |
| COc1ccc(C2CCc3cc(C)ccc3C2=O)cc1 (stereo unspecified) | 80 to 82 |
| C=Cc1ccc(Cc2ccc(C=C)cc2)cc1 | 30 to 33 |
| COc1cccc(-c2cc(C(=O)NCCCCCCCCc3ccccc3)cc(-c3cccc(OC)c3OCC(=O)O)c2)c1 | 67.3 to 68.7 |
| O=c1[nH]c2ccc(S(=O)CCCl)cc2o1 (stereo unspecified) | 150 to 155 |
| N#Cc1ccccc1NC1CCN(Cc2ccccc2)CC1 | 104 to 105 |
| CCOC(=O)CCCC(=O)c1ccc(F)cc1 | 46 to 47 |
| CNS(=O)(=O)c1ccc(-c2cc(N3CCOCC3)cc(Nc3ccc(OC(F)(F)F)cc3)n2)cc1 | 234 to 236 |
| COc1cc(NC(N)=O)c2c(c1)OC(C)C2 (stereo unspecified) | 204 |
| CCOC(=O)CC(C(=O)c1ccc(OC)cc1)c1ccc(OC)c(F)c1 (stereo unspecified) | 117 to 118 |
| CC(=O)N(c1cc(N)c(F)cc1Cl)S(=O)(=O)CCl | 176 to 180 |
| Clc1ccc(N2CCN(Cc3n[nH]c4ccccc34)CC2)cc1 | 223 to 224 |
| COC(=O)C=Cc1ccc(OCc2nc(-c3ccccc3)c(C)s2)cc1 | 142 to 143 |
| COc1ccc(/C=C/C(=O)/C=C/C(=O)O)c(OC)c1OC | 125 to 127 |
| CCCCN(CCCC)c1ccc(C=Cc2ccc(C=CC3=C(C#N)C(=C(C#N)C#N)OC3(c3ccccc3)C(F)(F)F)s2)c(OC)c1 (stereo unspecified) | 203 to 204 |
| CC1(C)Cc2cc(OCC(N)=O)c3c(c2C(c2ccccc2)=N1)CC(C)(C)O3 | 117 to 119 |
| OC1CCSC(=S)N1Cc1ccco1 (stereo unspecified) | 42 to 43 |

| Structure (SMILES) | melting point [°C] |
| --- | --- |
| CCOC(=O)c1csc(Nc2ccccc2)n1 | 140 to 142 |
| c1ccc2c(c1)Cc1cccnc1O2 | 87 to 88 |
| CC(C)(C)OC(=O)NC1CCN(CC(=O)O)C1=O (stereo unspecified) | 62 to 64 |
| CS(=O)(=O)N(Cc1cccnc1)c1ccccc1OCC(F)(F)F | 80 to 84 |
| CCC1Cc2cc(OCC(=O)O)cc(Br)c2C1=O (stereo unspecified) | 146 to 148 |
| O=C(N[C@@H](Cc1ccccc1)C(=O)Nc1nncs1)OCc1ccccc1 | 78 to 83 |
| CC(C)(O)c1ccc(CNC(=O)c2cccnc2Oc2ccc(F)cc2)cc1 | 106 to 108 |
| Nc1ccc(CCNC(=O)Nc2ccc(Nc3ccccc3)cc2)cc1 | > 260 |
| CC(O)C1(c2cccc(Cl)c2)CCCN(C)CC1 (stereo unspecified) | 123 to 124 |
| Nc1ccc(C(=O)N2Cc3ccccc3Cc3cc(Cl)ccc32)cc1 | 211 to 214 |
| CSc1ccc(C(=O)NC[C@H]2O[C@@H]2c2ccccc2)cc1 (racemic) | 110 |
| Cc1cc(S(=O)(=O)N2CCCCC2)c(O)c2c1CCC2=O | 188 to 189 |
| CN(C)C=NC(=O)c1c(N2CCN(Cc3ccccc3)CC2)nn2c(-c3cccc(C(F)(F)F)c3)ccnc12 | 140 to 142 |
| Cn1ncc(NCCN2CCC(c3noc4cc(F)ccc34)CC2)cc1=O | 200 to 202 |
| CCCCCCCCCCCCC(O)CC#CCCCC(=O)O (stereo unspecified) | 80.5 to 81 |
| CC(C)(C)OC(=O)NC(CO)COc1noc2ccc(Cl)cc12 (stereo unspecified) | 121 to 122 |
| CCCCOC1C=CC(=O)N1S(=O)(=O)c1ccccc1 (stereo unspecified) | 66 to 67 |
| COc1cc2ncnc(N3CCC(C(C)(O)CN4CCCS4(=O)=O)CC3)c2cc1OC (stereo unspecified) | 173 to 174 |
| COc1ccc(CN(C)CCCOc2ccc(NC(=O)c3cccc4c(=O)c5cccc(F)c5[nH]c34)c(C)c2)cc1OC | 130 |
| COc1cc(S(N)(=O)=O)cc(C(=O)NC2CCN(CC3CCCCC3)C2)c1OC (stereo unspecified) | 167 |

Other lines, results leading:

| melting point [°C] | Structure (SMILES) |
| --- | --- |
| 229 to 236 | COc1ccc(C(=O)c2cccc(C(=O)O)c2)c(O)c1 |
| > 260 | COc1cccc(OC)c1C(=O)Nc1nnc(-c2nc3ccccc3s2)s1 |
| 237 to 239 | CCCSC1=NSc2cc(C)cnc2N1Cc1ccc(-c2ccccc2C(=O)O)cc1 |
| 150 to 153 | CC(C)c1ccc(-c2cnc(-c3cccc(C(=O)O)c3)o2)cc1 |
| 210 | N#CC1=C(c2ccc(Cl)s2)Nc2n[nH]cc2C1c1cccc2nonc12 (stereo unspecified) |
| 220 to 222 | CS(=O)(=O)c1ccc(C2=C(c3ccc(-c4ccsc4)cc3)C(=O)OC2)cc1 |
| 150 to 152 | OCCN1CCN(C2=Nc3cc(Br)ccc3Oc3cscc32)CC1 |
| 232 to 235 | CS(=O)(=O)c1ccc(-c2cnn(-c3cccc(Cl)c3)c(=O)c2-c2ccc(F)cc2)cc1 |
| 212 | COc1ccc(C(=O)Nc2ccc3ccc(CO)nc3n2)cc1 |
| 144 to 145 | Cc1nc(N)c2nc(C)n(CCOC/C=C/c3ccccc3)c2c1C |
| 264 to 265 | Cc1cc(-c2csc(-c3ccc(C(=O)O)cc3)n2)c(C)o1 |
| 80 to 100 | CS(=O)(=O)c1ccc(-c2cnn(-c3ccc(F)cc3)c(=O)c2N2CCCCC2)cc1 |
| 178 to 180 | Cc1cccc(C)c1-n1cnc(OC(C)C(=O)O)n1 (stereo unspecified) |
| 222 | COc1oc2cccc(-c3ccc(O)cc3)c2c1C(C)=O |
| 234 to 237 | NC(=O)Cc1c(C(=O)c2ccccc2)[nH]c2cc(Cl)ccc12 |
| 203 to 205 | COc1ccc(Nc2nc(-c3cc(-c4ccccc4)no3)cs2)nc1 |
| 115 to 117 | Cn1cc(CC(NC(=O)CCS)C(=O)O)c2ccccc21 (racemic) |
| > 300 | Cc1[nH]c(=O)c2c(ccc3nc(Nc4c(Cl)cccc4Cl)n(C)c32)c1CC(=O)N1CCOCC1 |
| 320 to 324 | O=c1[nH]c2cc(Cl)ccc2c(O)c1-c1cccc(/C=C/c2ccccc2)c1 |
| > 300 | O=[N+]([O-])c1cc2nc(O)c(O)nc2c2c([N+](=O)[O-])cccc12 |

| melting point [°C] | Structure (SMILES) |
| --- | --- |
| 152 to 155 | COC1CCC(C2=C(O)C(=O)c3ccccc3C2=O)CC1 (stereo unspecified) |
| 100 to 102 | COc1ccc(C(=O)c2ccc(OCc3nc(-c4ccccc4)oc3C)cc2)c(OC(C)C(=O)O)c1 (stereo unspecified) |
| 185 to 187 | Cc1c(-c2cc(Nc3cc4n(n3)CCN(C)C4)c(=O)n(CO)n2)cccc1N1Cc2cc(C(C)(C)C)sc2C1=O |
| 199 to 201 | C=C(C)C(=O)Nc1ccc(O)c(-n2nc3ccc(OC)cc3n2)c1 |
| 278 to 281 | CCn1c(=O)c2[nH]c(/C=C/c3ccc(OC)c(OC)c3Cl)nc2n(CC)c1=O |
| 103 | CCOC(=O)COc1ccc(C(=O)c2ccoc2)c2ccccc12 |
| 146 to 147 | Cc1c(Cc2cc(F)cc(Cl)c2)sc2c(-c3cccc(C(=O)NCCO)c3)cccc12 |
| 174 | CCOc1ccc2c(c1)C(C)(c1ccccc1Cl)C(=O)N2S(=O)(=O)c1ccc(C(=O)O)cc1 (stereo unspecified) |
| 200 to 201 | O=C(NC(=O)c1ccc2ncccc2c1)NC1CCN(Cc2ccc3cc(F)ccc3c2)CC1 |
| 294 to 295 | CC(C)c1[nH]n(-c2c(Cl)cc(Cl)cc2Cl)c2nc(Cc3ccc(C(=O)O)cc3)nc(=O)c1-2 |
| 191 | Cc1cc(=O)c(Oc2ccc(F)cc2F)c(-c2ccc(S(C)(=O)=O)cc2)o1 |
| 210 to 212 | CSc1ccc(C(=O)NCc2ccc3c(c2)C(=O)N(C2(C)CCC(=O)NC2=O)C3=O)nc1 (stereo unspecified) |
| 236 to 244 | CNC(=O)c1ccc(C=CC(=O)Nc2cccc(-c3ccc(C)c(CCl)c3C)c2)cc1 |
| 233 | Cc1cc(-c2ccc(Cl)cc2)nc(-n2cnc(-c3cccc(S(C)(=O)=O)c3)c2)n1 |
| 148 to 150 | COC(=O)c1c(C)cc2cc(OC)c(OC)cc2c1-c1ccnc(Br)c1 |
| 252 to 254 | Cc1ncc2cc(-c3ccc(F)cc3)c(N)nc2n1 |
| 78 to 81 | CC(O)=C1C(=O)CC(c2ccccc2C)CC1=O (stereo unspecified) |
| 320 to 322 | Nc1ncc2cc(-c3c(Cl)ccc(Cl)c3Cl)c(N)nc2n1 |
| 164 to 167 | CNC(=O)c1cccc(Oc2ncccc2C(=O)NCc2ccccc2)c1 |
